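Tested at 5 concentrations; 48 h exposure; 96-well plates; endpoints linearly interpolated, else capped at highest concentration. TGI marks complete inhibition of growth.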
Tests used:
Test in all cases: NCI anticancer screen, dose series, 48 h
MCF7 breast = tested on: MCF7 breast
SK-MEL-5 melanoma = tested on: SK-MEL-5 melanoma
RPMI-8226 leukemia = tested on: RPMI-8226 leukemia
A498 renal = tested on: A498 renal
UO-31 renal = tested on: UO-31 renal
RXF 393 renal = tested on: RXF 393 renal
U251 CNS = tested on: U251 CNS
DU-145 prostate = tested on: DU-145 prostate

| SMILES | TGI (MCF7 breast) [µM] | TGI (SK-MEL-5 melanoma) [µM] | TGI (RPMI-8226 leukemia) [µM] | TGI (A498 renal) [µM] | TGI (UO-31 renal) [µM] | TGI (RXF 393 renal) [µM] | TGI (U251 CNS) [µM] | TGI (DU-145 prostate) [µM] |
| --- | --- | --- | --- | --- | --- | --- | --- | --- |
| Cc1ccc2c(c1)CC1(Cc3cc(C)ccc3C1=O)C2=O | > 100 | > 100 | > 100 | > 100 | > 100 | > 100 | > 100 | > 100 |
| CCn1c(=O)c2nc(SC)sc2n(-c2ccccc2)c1=S | > 100 | > 100 | > 100 |  | 35.4 | > 100 | > 100 | > 100 |
| COc1cc2c(cc1C)NC(=O)/C2=C/c1c(Cl)[nH]c2ccccc12 | 16.1 | 11.4 | > 100 | 16.6 | 25.8 | 24.7 | 16.9 | 27 |
| CC(NC(CC12CC3CC(CC(C3)C1)C2)C(N)=O)c1ccccc1 (stereo unspecified) | > 100 | 26.3 | 40.5 | 31.5 | 51.4 |  | 26.1 | > 100 |
| COC(=O)c1sc2c(c1C(=O)OC)C(=Nc1ccc(OC)cc1)SC2=Nc1ccc(OC)cc1 | 2.47 | 2.54 |  | 3.01 | 2.11 | 1.72 | 1.03 | 1.69 |
| C=CCCCCCCCCCOC1C=CC(O)C(CO)O1 (stereo unspecified) | > 100 | 48.1 | 50.4 | > 100 | > 100 | > 100 | > 100 | > 100 |
| Cc1n[nH]c(=O)c2c3c([nH]c12)-c1ccccc1C3 | > 100 | > 100 | > 100 | > 100 | > 100 | > 100 | > 100 | > 100 |
| CCc1nnc2sc(-c3ccc(-c4ccccc4[N+](=O)[O-])o3)nn12 | > 100 | 65.9 | > 100 | > 100 | > 100 | > 100 | > 100 | > 100 |
| COc1ccc(Cl)cc1NC(=O)O/N=C(\Cl)C(C)C | 38.6 | > 44.5 | 4.61 | 46.8 | 28.5 | 17.4 | > 59.4 | 37.4 |
| N#CC1=C(N)OC2=C(CCCc3ccc([N+](=O)[O-])cc32)C1c1ccc(Cl)cc1 (stereo unspecified) | 22.6 | 15.7 | 32 | 35.5 | > 100 | 19.5 | 28 | 63.2 |
| N#CCCN(C(=O)Nc1ccc(NC(=O)N(CCC#N)c2ccccc2)cc1)c1ccccc1 | > 100 | > 100 | > 100 | > 100 | > 100 | > 100 | > 100 | > 100 |
| C=CCN(C(C)=O)c1cc(OCc2ccccc2)c2c(c1)c(C)cn2S(=O)(=O)c1ccccc1 | 31 | 21.5 | > 28.5 | 26.3 | > 100 | > 100 | > 100 | > 100 |
| Cc1ccc([N+](=O)[O-])cc1S(=O)(=O)Nc1ccc(C2=NN(S(=O)(=O)c3cc([N+](=O)[O-])ccc3C)C(c3ccccc3O)C2)cc1 (stereo unspecified) | > 100 | > 100 | > 100 | 83.9 | > 100 | > 100 | > 100 | > 100 |
| O=c1[nH]nc(-c2cccc([N+](=O)[O-])c2)[nH]1 | > 100 |  | > 100 | > 100 | > 100 | > 100 | > 100 | > 100 |
| CC(C)C1OC(=O)C(Cc2ccccc2)N(C)C(=O)C(C(C)C)OC(=O)C(Cc2ccccc2)N(C)C(=O)C(C(C)C)OC(=O)C(Cc2ccccc2)N(C)C1=O (stereo unspecified) | 1.79 | 1.08 | 1.31 | 6.53 | 1.27 | 2.33 | 1.77 | 3.03 |
| CCC(C)C(NC(=O)c1cccc2c(=O)c3ccccc3[nH]c12)C(=O)O (stereo unspecified) | > 100 | > 100 | > 100 | > 100 | > 100 |  | > 100 | > 100 |
| CC(C)C(Sc1nc(N)nc2nc[nH]c12)C(=O)O (stereo unspecified) | > 100 | > 100 | > 100 | > 100 | > 100 | > 100 | > 100 | > 100 |
| CC(=O)CC(O)(C(F)(F)Cl)C(F)(Cl)Cl (stereo unspecified) | > 10 | > 10 |  | > 10 | > 10 | > 10 | > 10 | > 10 |
| CC1(C)OCC(/C=C\C(O)CC2(C)OCCO2)CO1 (stereo unspecified) | > 100 | > 100 | > 100 | > 100 | > 100 |  | > 100 | > 100 |
| COc1ccc2nc(-c3ccc(N)cc3)sc2c1 | > 100 | > 100 |  | > 100 | > 100 | > 100 | > 100 |  |
| NC1CC(=O)c2c(I)sc(I)c21 (stereo unspecified) | > 67.7 | > 71.1 | 29.9 | 37.1 | 35.5 | > 60.8 | 51.1 | > 55.1 |
| O=C1c2ccccc2CC12Cc1ccc3c(c1C2=O)CCCC3 (stereo unspecified) | > 100 | > 100 | > 100 | > 100 | > 100 | 23.9 | > 100 | > 100 |
| CC(=O)N(C(=O)CC(=O)N1N=C(C)C(N=Nc2cccc([N+](=O)[O-])c2)C1=O)c1ccc(Cl)cc1 (stereo unspecified) | > 10 | > 10 | > 10 |  |  |  | > 10 | > 10 |
| CN1N=C(c2ccncc2)OC1c1ccc(C(F)(F)F)cc1 (stereo unspecified) | > 100 | > 100 | > 100 | > 100 | > 100 | > 100 | > 100 | > 100 |
| c1cc(CSP234N5CCN2CCN3CCN4CC5)cc(CSP234N5CCN2CCN3CCN4CC5)c1 | 68.6 | 45.5 | > 100 |  | 39.3 |  | 56.2 | > 100 |

From PubChem BioAssay (NCI)
